Results reported in patent publication US20230066946A1, “1,5-DIPHENYLPYRAZOLYL-3-OXYALKYL ACIDS AND 1-PHENYL-5-THIENYLPYRAZOLYL-3-OXYALKYL ACIDS AND THE USE THEREOF FOR CONTROL OF UNWANTED PLANT GROWTH” (Bayer Aktiengesellschaft, priority 2019, published 2023).

Columns and labels:
STEME [1] = experiment: Pre-emergence herbicidal action against STEME; assay type: in vivo, Stellaria media; conditions: 1280 g/ha, scored visually after about 3 weeks vs untreated controls
Text: (§1) Seeds of mono- and dicotyledonous weed plants are placed in plastic pots in sandy loam soil (doubly sown with one species each of mono- or dicotyledonous weed plants per pot) and covered with soil. The compounds of the invention, formulated in the form of wettable powders (WP) or as emulsion concentrates (EC), are then applied onto the surface of the covering soil as aqueous suspension or emulsion with addition of 0.5% additive at a water application rate equivalent to 600 litres per hectare. After the treatment, the pots are placed in a greenhouse and kept under good growth conditions for the trial plants. After about 3 weeks, the effect of the preparations is scored visually in comparison with untreated controls as percentages. For example, 100% activity=the plants have died, 0% activity=like control plants. [table] Tables 4.1-4.15 below show the effects of selected compounds of the general formula (I) according to Tables 1 to 3 on various harmful plants at an application rate corresponding to 1280 or 320 g/ha, which have been obtained by the aforementioned experimental method.

AMARE [2] = experiment: Post-emergence herbicidal action against AMARE; assay type: in vivo, Amaranthus retroflexus; conditions: 1280 g/ha, visual rating about 3 weeks after treatment
Description: (§2) [table] Seeds of mono- and dicotyledonous weed plants are placed in plastic pots in sandy loam soil (twin sowing with one species each of mono- or dicotyledonous weed plants per pot), covered with soil and cultivated in a greenhouse under controlled growth conditions. 2 to 3 weeks after sowing, the test plants are treated at the one-leaf stage. The compounds of the invention, formulated in the form of wettable powders (WP) or as emulsion concentrates (EC), are applied to the green parts of the plants as aqueous suspension or emulsion with addition of 0.5% additive at a water application rate equivalent to 600 litres per hectare. After the test plants have been kept in the greenhouse under optimum growth conditions for about 3 weeks, the activity of the preparations is rated visually in comparison to untreated controls. For example, 100% activity=the plants have died, 0% activity=like control plants. Tables 5.1-5.16 below show the effects of selected compounds of the general formula (I) according to Tables 1 to 3 on various harmful plants at an application rate corresponding to 1280 or 320 g/ha, which have been obtained by the aforementioned experimental method.

SETVI = experiment: Pre-emergence herbicidal action against SETVI; assay type: in vivo, Setaria viridis; conditions: 1280 g/ha, scored visually after about 3 weeks vs untreated controls
Text: as §1

AMARE [3] = experiment: Pre-emergence herbicidal action against AMARE; assay type: in vivo, Amaranthus retroflexus; conditions: 1280 g/ha, scored visually after about 3 weeks vs untreated controls
Text: as §1

STEME [4] = experiment: Post-emergence herbicidal action against STEME; assay type: in vivo, Stellaria media; conditions: 1280 g/ha, visual rating about 3 weeks after treatment
Description: as §2

MATIN = experiment: Post-emergence herbicidal action against MATIN; assay type: in vivo, Matricaria inodora; conditions: 1280 g/ha, visual rating about 3 weeks after treatment
Description: as §2

| Structure (SMILES) | Pre-emergence action against STEME in % (STEME [1]) [%] | Post-emergence action against AMARE in % (AMARE [2]) [%] | Pre-emergence action against SETVI in % (SETVI) [%] | Pre-emergence action against AMARE in % (AMARE [3]) [%] | Post-emergence action against STEME in % (STEME [4]) [%] | Post-emergence action against MATIN in % (MATIN) [%] |
| --- | --- | --- | --- | --- | --- | --- |
| COC(=O)COc1nn(-c2ccc(C)cc2)c(-c2cccc(F)c2)c1C#N [I-020] | 80 | – | – | – | – | – |
| COC(=O)COc1nn(-c2ccc(Cl)c(Cl)c2)c(-c2ccc(F)c(F)c2)c1Cl [I-027] | – | 80 | – | – | – | – |
| CCOC(=O)COc1nn(-c2ccc(Cl)cc2)c(-c2ccc(F)cc2)c1Br [I-078] | – | 100 | 100 | 90 | – | – |
| CCOC(=O)COc1nn(-c2ccc(F)cc2)c(-c2ccc(F)cc2F)c1Br [I-086] | 90 | 100 | 90 | 100 | – | – |
| CCOC(=O)COc1nn(-c2ccc(F)cc2F)c(-c2ccc(F)cc2F)c1Br [I-088] | 100 | 100 | 90 | 90 | 100 | 90 |
| CCOC(=O)COc1nn(-c2ccccc2OC)c(-c2ccc(F)cc2F)c1Br [I-091] | – | 100 | 90 | 100 | – | – |
| CCOC(=O)COc1nn(-c2ccccc2OC)c(-c2ccccc2)c1Br [I-092] | 100 | 100 | 100 | 100 | – | – |
| COC(=O)COc1nn(-c2ccccc2F)c(-c2ccc(F)s2)c1Cl [I-094, Methyl {[4-chloro-1-(2-fluorophenyl)-5-(5-fluoro-2-thienyl)-1H-pyrazol-3-yl]oxy}acetate] | 100 | 100 | 100 | 100 | – | – |
| COC(=O)COc1nn(-c2ccccc2F)c(-c2ccc(F)s2)c1Br [I-095] | 100 | 100 | 100 | 100 | – | 100 |
| COC(=O)COc1nn(-c2ccccc2F)c(-c2ccc([N+](=O)[O-])cc2)c1[N+](=O)[O-] [I-099] | – | 90 | – | 90 | – | – |
| COC(=O)COc1nn(-c2ccc(F)cc2)c(-c2cccc(F)c2)c1[N+](=O)[O-] [I-108] | – | – | 100 | 90 | – | – |
| COC(=O)COc1nn(-c2ccc(F)cc2)c(-c2cccc(F)c2)c1I [I-109] | 100 | 100 | – | – | 90 | – |
| O=C(COc1nn(-c2ccccc2)c(-c2ccc(F)cc2)c1Br)OCc1ccccc1 [I-112] | 100 | – | – | 100 | – | – |
| O=C(O)COc1nn(-c2ccc(F)cc2)c(-c2cccc(F)c2)c1I [I-118] | – | – | 90 | 100 | – | – |
| O=C(COc1nn(-c2ccc(F)cc2)c(-c2cccc(F)c2)c1I)OCc1ccccc1 [I-124] | 100 | – | 100 | – | – | 90 |
| O=C(O)COc1nn(-c2cccc(F)c2)c(-c2ccccc2)c1Br [I-127] | 100 | 90 | 100 | 100 | – | 90 |
| O=C(O)COc1nn(-c2cccc(F)c2)c(-c2ccccc2)c1I [I-128] | 90 | 90 | – | 100 | – | – |
| O=C(O)COc1nn(-c2cccc(F)c2)c(-c2ccccc2)c1[N+](=O)[O-] [I-129] | 100 | 100 | 100 | 100 | – | 100 |
| COC(=O)C(C)Oc1nn(-c2ccccc2)c(-c2ccc(F)cc2)c1Br (centres unmarked) [I-132, Methyl 2-{[4-bromo-5-(4-fluorophenyl)-1-phenyl-1H-pyrazol-3-yl]oxy}propanoate] | 100 | – | 100 | 100 | 100 | 90 |

| Structure (SMILES) | Pre-emergence action against STEME in % (STEME [1]) [%] | Post-emergence action against AMARE in % (AMARE [2]) [%] | Pre-emergence action against SETVI in % (SETVI) [%] | Pre-emergence action against AMARE in % (AMARE [3]) [%] | Post-emergence action against STEME in % (STEME [4]) [%] | Post-emergence action against MATIN in % (MATIN) [%] |
| --- | --- | --- | --- | --- | --- | --- |
| COC(=O)C(C)(C)Oc1nn(-c2ccccc2)c(-c2ccc(F)cc2)c1Br [I-135] | 100 | – | – | – | – | – |
| CCOC(=O)COc1nn(-c2c(F)cccc2F)c(-c2ccc(F)c(F)c2)c1[N+](=O)[O-] [I-144] | – | – | 100 | 100 | – | – |
| CCOC(=O)COc1nn(-c2ccc(Cl)cc2F)c(-c2ccc(F)cc2F)c1Br [I-150] | 100 | – | – | – | 100 | – |
| CCOC(=O)COc1nn(-c2ccc(Cl)cc2F)c(-c2ccc(F)cc2Cl)c1Br [I-155] | 100 | – | – | 90 | – | – |
| CCOC(=O)COc1nn(-c2ccc(Cl)cc2F)c(-c2ccc(F)cc2)c1Br [I-156] | 100 | 100 | 90 | 100 | – | 90 |
| COC(=O)C(C)Oc1nn(-c2ccccc2)c(-c2ccccc2F)c1Cl (centres unmarked) [I-166] | 90 | 100 | 90 | 90 | – | 100 |
| COC(=O)C(C)Oc1nn(-c2ccccc2F)c(-c2ccc(F)c(F)c2)c1Br (centres unmarked) [I-170] | 100 | 90 | 100 | 100 | 100 | – |
| CCCN.O=C(O)COc1nn(-c2cccc(F)c2)c(-c2ccccc2)c1I [II-06] | 90 | – | – | 90 | 100 | – |
| CCCN(CCC)CCC.O=C(O)COc1nn(-c2cccc(F)c2)c(-c2ccccc2)c1I [II-07] | 90 | – | – | 90 | – | – |
| CCNC.O=C(O)COc1nn(-c2cccc(F)c2)c(-c2ccccc2)c1I [II-08] | – | – | – | – | 90 | – |
| CC(C)(C)N.O=C(O)COc1nn(-c2cccc(F)c2)c(-c2ccccc2)c1I [II-09] | 100 | – | – | 90 | 100 | – |
| CCN(CC)CC.O=C(O)COc1nn(-c2cccc(F)c2)c(-c2ccccc2)c1I [II-14] | – | – | – | 100 | – | – |
| C=CCNC(=O)COc1nn(-c2ccc(F)cc2)c(-c2cccc(F)c2)c1I [III-008] | 100 | – | – | – | 100 | – |
| CC#CCNC(=O)COc1nn(-c2ccc(F)cc2)c(-c2cccc(F)c2)c1Br [III-017] | 100 | 100 | 100 | 100 | – | – |
| O=C(COc1nn(-c2ccc(F)cc2)c(-c2cccc(F)c2)c1Br)NC1CC1 [III-018] | 100 | 100 | 90 | 90 | – | – |
| O=C(COc1nn(-c2ccc(F)cc2)c(-c2cccc(F)c2)c1Cl)NCC1CC1 [III-025] | 100 | 90 | – | – | 100 | – |
| COC(=O)CNC(=O)COc1nn(-c2cccc(F)c2)c(-c2ccccc2)c1[N+](=O)[O-] [III-029] | – | – | – | 90 | – | – |
| COC(=O)CNC(=O)C(C)Oc1nn(-c2ccccc2)c(-c2ccc(F)cc2)c1Br (centres unmarked) [III-056, Methyl N-(2-{[4-bromo-5-(4-fluorophenyl)-1-phenyl-1H-pyrazol-3-yl]oxy}propanoyl)glycinate] | 100 | – | 90 | 100 | – | 90 |
